Laboratory results reported in patent publication US11274083B2, “Substituted thiophenyl uracils, salts thereof and the use thereof as herbicidal agents” (Syngenta Crop Protection AG, priority 2017, dated 2022).

Tests used:
Assay type in all cases: in vivo
Setaria viridis [1] = experiment: Herbicidal action post-emergence, greenhouse pot test
Method in brief: (§1)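 Visual efficacy scoring (0% like untreated, 100% plant death) about 3 weeks post-treatment. Application, at ≤80 g/ha, was a post-emergence spray of wettable-powder or emulsion-concentrate formulations in water with 0.5% additive at 600 L/ha onto one-leaf-stage plants grown 2–3 weeks from seed in sandy loam.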

Veronica persica [2] = experiment: as above
Method in brief: as §1

Matricaria inodora [3] = experiment: as above
Method in brief: as §1

Stellaria media [4] = experiment: as above
Method in brief: as §1

Alopecurus myosuroides [5] = experiment: as above; details: scored visually after about 3 weeks vs untreated controls
Method in brief: as §1

Amaranthus retroflexus [6] = experiment: as above
Method in brief: as §1

Echinochloa crus-galli [7] = experiment: as above
Method in brief: as §1

Viola tricolor [8] = experiment: as above
Method in brief: as §1

Lolium rigidum [9] = experiment: as above
Method in brief: as §1

Polygonum convolvulus [10] = experiment: as above
Method in brief: as §1

Abutilon theophrasti [11] = experiment: as above
Method in brief: as §1

Pharbitis purpurea [12] = experiment: as above
Method in brief: as §1

Digitaria sanguinalis = experiment: as above; details: application rate 20 g/ha
Triticum aestivum = experiment: Crop compatibility post-emergence, greenhouse pot test
Method in brief: (§2)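 Visual % damage rating versus untreated plants (100% = plants dead, 0% = as control), taken about 3 weeks post-treatment. Spray applied to foliage at one-leaf stage (2–3 weeks from sowing) as WP/EC formulation in water plus 0.5% additive, 600 L/ha; greenhouse pots, sandy loam.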

Glycine max = experiment: as above
Method in brief: as §2

Oryza sativa = experiment: as above
Method in brief: as §2

Avena fatua [13] = experiment: Herbicidal action post-emergence, greenhouse pot test; details: application rate 80 g/ha
Method in brief: as §1

Hordeum murinum [14] = experiment: as above; details: application rate 80 g/ha
Method in brief: as §1

Setaria viridis [15] = experiment: Herbicidal action pre-emergence, greenhouse pot test
Method in brief: (§3)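 Pre-emergence soil-surface treatment at application rates of 320 g/ha or below, using WP or EC formulations in water (600 L/ha) plus 0.5% additive over freshly sown, soil-covered seeds. After roughly 3 weeks' greenhouse growth, damage rated visually against untreated plants, 0% meaning like control.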

Cyperus esculentus = experiment: as above
Method in brief: as §3

Veronica persica [16] = experiment: as above; details: application rate 80 g/ha
Method in brief: as §3

Stellaria media [17] = experiment: as above
Method in brief: as §3

Alopecurus myosuroides [18] = experiment: as above; details: application rate 320 g/ha
Method in brief: as §3

Amaranthus retroflexus [19] = experiment: as above; details: application rate 80 g/ha
Method in brief: as §3

Avena fatua [20] = experiment: as above; details: application rate 320 g/ha
Method in brief: as §3

Echinochloa crus-galli [21] = experiment: as above; details: application rate 320 g/ha
Method in brief: as §3

Viola tricolor [22] = experiment: as above
Method in brief: as §3

Lolium rigidum [23] = experiment: as above; details: application rate 320 g/ha
Method in brief: as §3

Polygonum convolvulus [24] = experiment: as above
Method in brief: as §3

Hordeum murinum [25] = experiment: as above; details: application rate 320 g/ha
Method in brief: as §3

Abutilon theophrasti [26] = experiment: as above
Method in brief: as §3

Pharbitis purpurea [27] = experiment: as above
Method in brief: as §3

Matricaria inodora [28] = experiment: as above
Zea mays = experiment: Crop compatibility post-emergence, greenhouse pot test
Method in brief: as §2

## CNC(=O)CCOC(=O)C(C)Sc1cc(-n2c(=O)cc(C(F)(F)F)n(C)c2=O)c(F)cc1Cl (stereo not shown) [I.1-152]
Setaria viridis [1]; application rate 20 g/ha
  Setaria viridis (Efficacy in %): 100%
Veronica persica [2]; application rate 20 g/ha
  Veronica persica (Efficacy in %): 100%
Matricaria inodora [3]; application rate 20 g/ha
  Matricaria inodora (Efficacy in %): 100%
Stellaria media [4]; application rate 20 g/ha
  Stellaria media (Efficacy in %): 100%
Alopecurus myosuroides [5]; application rate 20 g/ha
  Alopecurus myosuroides (Efficacy in %): 80%
Amaranthus retroflexus [6]; application rate 20 g/ha
  Amaranthus retroflexus (Efficacy in %): 100%
Echinochloa crus-galli [7]; application rate 20 g/ha
  Echinochloa crus-galli (Efficacy in %): 100%
Viola tricolor [8]; application rate 20 g/ha
  Viola tricolor (Efficacy in %): 100%
Lolium rigidum [9]; application rate 20 g/ha
  Lolium rigidum (Efficacy in %): 80%
Polygonum convolvulus [10]; application rate 20 g/ha
  Polygonum convolvulus (Efficacy in %): 100%
Abutilon theophrasti [11]; application rate 20 g/ha
  Abutilon theophrasti (Efficacy in %): 100%
Pharbitis purpurea [12]; application rate 20 g/ha
  Pharbitis purpurea (Efficacy in %): 100%
Digitaria sanguinalis
  Digitaria sanguinalis (Efficacy in %): 100%
Triticum aestivum; application rate 5 g/ha
  Triticum aestivum (Efficacy in %): 20%
Glycine max; application rate 5 g/ha
  Glycine max (Efficacy in %): 20%
Oryza sativa; application rate 5 g/ha
  Oryza sativa (Efficacy in %): 10%

## CON(C)C(=O)COC(=O)C(C)Sc1cc(-n2c(=O)cc(C(F)(F)F)n(C)c2=O)c(F)cc1Cl (stereo not shown) [I.1-242]
Setaria viridis [1]; application rate 80 g/ha
  Setaria viridis (Efficacy in %): 100%
Veronica persica [2]; application rate 80 g/ha
  Veronica persica (Efficacy in %): 100%
Matricaria inodora [3]; application rate 80 g/ha
  Matricaria inodora (Efficacy in %): 100%
Stellaria media [4]; application rate 80 g/ha
  Stellaria media (Efficacy in %): 100%
Alopecurus myosuroides [5]; application rate 20 g/ha
  Alopecurus myosuroides (Efficacy in %): 90%
Amaranthus retroflexus [6]; application rate 80 g/ha
  Amaranthus retroflexus (Efficacy in %): 100%
Avena fatua [13]
  Avena fatua (Efficacy in %): 80%
Echinochloa crus-galli [7]; application rate 80 g/ha
  Echinochloa crus-galli (Efficacy in %): 100%
Viola tricolor [8]; application rate 80 g/ha
  Viola tricolor (Efficacy in %): 100%
Lolium rigidum [9]; application rate 80 g/ha
  Lolium rigidum (Efficacy in %): 100%
Polygonum convolvulus [10]; application rate 80 g/ha
  Polygonum convolvulus (Efficacy in %): 100%
Hordeum murinum [14]
  Hordeum murinum (Efficacy in %): 90%
Abutilon theophrasti [11]; application rate 80 g/ha
  Abutilon theophrasti (Efficacy in %): 100%
Pharbitis purpurea [12]; application rate 80 g/ha
  Pharbitis purpurea (Efficacy in %): 100%
Setaria viridis [15]; application rate 80 g/ha
  Setaria viridis (Efficacy in %): 100%
Cyperus esculentus; application rate 80 g/ha
  Cyperus esculentus (Efficacy in %): 80%
Veronica persica [16]
  Veronica persica (Efficacy in %): 100%
Stellaria media [17]; application rate 80 g/ha
  Stellaria media (Efficacy in %): 100%
Alopecurus myosuroides [18]
  Alopecurus myosuroides (Efficacy in %): 90%
Amaranthus retroflexus [19]
  Amaranthus retroflexus (Efficacy in %): 100%
Avena fatua [20]
  Avena fatua (Efficacy in %): 80%
Echinochloa crus-galli [21]
  Echinochloa crus-galli (Efficacy in %): 100%
Viola tricolor [22]; application rate 80 g/ha
  Viola tricolor (Efficacy in %): 100%
Lolium rigidum [23]
  Lolium rigidum (Efficacy in %): 100%
Polygonum convolvulus [24]; application rate 80 g/ha
  Polygonum convolvulus (Efficacy in %): 100%
Hordeum murinum [25]
  Hordeum murinum (Efficacy in %): 90%
Abutilon theophrasti [26]; application rate 80 g/ha
  Abutilon theophrasti (Efficacy in %): 100%
Pharbitis purpurea [27]; application rate 80 g/ha
  Pharbitis purpurea (Efficacy in %): 100%
Matricaria inodora [28]; application rate 80 g/ha
  Matricaria inodora (Efficacy in %): 100%
Triticum aestivum; application rate 5 g/ha
  Triticum aestivum (Efficacy in %): 20%
Oryza sativa; application rate 5 g/ha
  Oryza sativa (Efficacy in %): 20%
Zea mays; application rate 80 g/ha
  Zea mays (Efficacy in %): 20%

## CCC(Sc1cc(-n2c(=O)cc(C(F)(F)F)n(C)c2=O)c(F)cc1Cl)C(=O)OCCC(=O)OC (stereo not shown) [I.2-2]
Setaria viridis [1]; application rate 80 g/ha
  Setaria viridis (Efficacy in %): 100%
Veronica persica [2]; application rate 20 g/ha
  Veronica persica (Efficacy in %): 100%
Matricaria inodora [3]; application rate 80 g/ha
  Matricaria inodora (Efficacy in %): 100%
Stellaria media [4]; application rate 80 g/ha
  Stellaria media (Efficacy in %): 100%
Alopecurus myosuroides [5]; application rate 80 g/ha
  Alopecurus myosuroides (Efficacy in %): 100%
Amaranthus retroflexus [6]; application rate 80 g/ha
  Amaranthus retroflexus (Efficacy in %): 100%
Avena fatua [13]
  Avena fatua (Efficacy in %): 80%
Echinochloa crus-galli [7]; application rate 80 g/ha
  Echinochloa crus-galli (Efficacy in %): 100%
Viola tricolor [8]; application rate 80 g/ha
  Viola tricolor (Efficacy in %): 100%
Lolium rigidum [9]; application rate 80 g/ha
  Lolium rigidum (Efficacy in %): 80%
Polygonum convolvulus [10]; application rate 80 g/ha
  Polygonum convolvulus (Efficacy in %): 100%
Hordeum murinum [14]
  Hordeum murinum (Efficacy in %): 80%
Abutilon theophrasti [11]; application rate 80 g/ha
  Abutilon theophrasti (Efficacy in %): 100%
Pharbitis purpurea [12]; application rate 20 g/ha
  Pharbitis purpurea (Efficacy in %): 100%
Setaria viridis [15]; application rate 320 g/ha
  Setaria viridis (Efficacy in %): 100%
Cyperus esculentus; application rate 320 g/ha
  Cyperus esculentus (Efficacy in %): 90%
Veronica persica [16]
  Veronica persica (Efficacy in %): 100%
Stellaria media [17]; application rate 320 g/ha
  Stellaria media (Efficacy in %): 100%
Alopecurus myosuroides [18]
  Alopecurus myosuroides (Efficacy in %): 100%
Amaranthus retroflexus [19]
  Amaranthus retroflexus (Efficacy in %): 100%
Echinochloa crus-galli [21]
  Echinochloa crus-galli (Efficacy in %): 100%
Viola tricolor [22]; application rate 320 g/ha
  Viola tricolor (Efficacy in %): 100%
Lolium rigidum [23]
  Lolium rigidum (Efficacy in %): 100%
Polygonum convolvulus [24]; application rate 320 g/ha
  Polygonum convolvulus (Efficacy in %): 100%
Hordeum murinum [25]
  Hordeum murinum (Efficacy in %): 100%
Abutilon theophrasti [26]; application rate 320 g/ha
  Abutilon theophrasti (Efficacy in %): 100%
Pharbitis purpurea [27]; application rate 320 g/ha
  Pharbitis purpurea (Efficacy in %): 100%
Matricaria inodora [28]; application rate 320 g/ha
  Matricaria inodora (Efficacy in %): 100%
Triticum aestivum; application rate 5 g/ha
  Triticum aestivum (Efficacy in %): 20%
Oryza sativa; application rate 5 g/ha
  Oryza sativa (Efficacy in %): 20%

## CCOC(=O)COC(=O)C(CC)Sc1cc(-n2c(=O)cc(C(F)(F)F)n(C)c2=O)c(F)cc1Cl (stereo not shown) [I.2-43, 2-Ethoxy-2-oxoethyl 2-({2-chloro-4-fluoro-5-[3-methyl-2,6-dioxo-4-(trifluoromethyl)-3,6-dihydropyrimidin-1(2H)-yl]phenyl}sulfanyl)butanoate]
Setaria viridis [1]; application rate 20 g/ha
  Setaria viridis (Efficacy in %): 100%
Veronica persica [2]; application rate 20 g/ha
  Veronica persica (Efficacy in %): 100%
Matricaria inodora [3]; application rate 20 g/ha
  Matricaria inodora (Efficacy in %): 100%
Stellaria media [4]; application rate 20 g/ha
  Stellaria media (Efficacy in %): 100%
Amaranthus retroflexus [6]; application rate 20 g/ha
  Amaranthus retroflexus (Efficacy in %): 100%
Echinochloa crus-galli [7]; application rate 20 g/ha
  Echinochloa crus-galli (Efficacy in %): 100%
Viola tricolor [8]; application rate 20 g/ha
  Viola tricolor (Efficacy in %): 100%
Polygonum convolvulus [10]; application rate 20 g/ha
  Polygonum convolvulus (Efficacy in %): 100%
Abutilon theophrasti [11]; application rate 20 g/ha
  Abutilon theophrasti (Efficacy in %): 100%
Pharbitis purpurea [12]; application rate 20 g/ha
  Pharbitis purpurea (Efficacy in %): 100%
Triticum aestivum; application rate 20 g/ha
  Triticum aestivum (Efficacy in %): 10%
Glycine max; application rate 5 g/ha
  Glycine max (Efficacy in %): 20%
Oryza sativa; application rate 20 g/ha
  Oryza sativa (Efficacy in %): 20%
Zea mays; application rate 20 g/ha
  Zea mays (Efficacy in %): 20%

## CCOC(=O)CCOC(=O)C(CC(C)C)Sc1cc(-n2c(=O)c(C)c(C(F)(F)F)n(C)c2=O)c(F)cc1Cl (stereo not shown) [I.14-3]
Setaria viridis [1]; application rate 20 g/ha
  Setaria viridis (Efficacy in %): 90%
Veronica persica [2]; application rate 20 g/ha
  Veronica persica (Efficacy in %): 100%
Amaranthus retroflexus [6]; application rate 20 g/ha
  Amaranthus retroflexus (Efficacy in %): 100%
Viola tricolor [8]; application rate 20 g/ha
  Viola tricolor (Efficacy in %): 100%
Polygonum convolvulus [10]; application rate 20 g/ha
  Polygonum convolvulus (Efficacy in %): 100%
Abutilon theophrasti [11]; application rate 20 g/ha
  Abutilon theophrasti (Efficacy in %): 100%
Pharbitis purpurea [12]; application rate 20 g/ha
  Pharbitis purpurea (Efficacy in %): 100%
Triticum aestivum; application rate 20 g/ha
  Triticum aestivum (Efficacy in %): 20%
Glycine max; application rate 20 g/ha
  Glycine max (Efficacy in %): 20%
Oryza sativa; application rate 20 g/ha
  Oryza sativa (Efficacy in %): 0%

## CCCCC(Sc1cc(-n2c(=O)cc(C(F)(F)F)n(C)c2=O)c(F)cc1Cl)C(=O)OCCC(=O)OCc1ccccc1 (stereo not shown) [I.47-6]
Setaria viridis [1]; application rate 20 g/ha
  Setaria viridis (Efficacy in %): 100%
Veronica persica [2]; application rate 20 g/ha
  Veronica persica (Efficacy in %): 100%
Stellaria media [4]; application rate 20 g/ha
  Stellaria media (Efficacy in %): 80%
Amaranthus retroflexus [6]; application rate 20 g/ha
  Amaranthus retroflexus (Efficacy in %): 100%
Viola tricolor [8]; application rate 20 g/ha
  Viola tricolor (Efficacy in %): 100%
Polygonum convolvulus [10]; application rate 20 g/ha
  Polygonum convolvulus (Efficacy in %): 100%
Abutilon theophrasti [11]; application rate 70 g/ha
  Abutilon theophrasti (Efficacy in %): 100%
Pharbitis purpurea [12]; application rate 20 g/ha
  Pharbitis purpurea (Efficacy in %): 100%
Digitaria sanguinalis
  Digitaria sanguinalis (Efficacy in %): 80%
Triticum aestivum; application rate 5 g/ha
  Triticum aestivum (Efficacy in %): 20%
Glycine max; application rate 5 g/ha
  Glycine max (Efficacy in %): 20%
Oryza sativa; application rate 20 g/ha
  Oryza sativa (Efficacy in %): 20%
Zea mays; application rate 20 g/ha
  Zea mays (Efficacy in %): 20%
